In patent US11602534B2, “Pyrimidine derivative kinase inhibitors” (HEFEI INSTITUTES OF PHYSICAL SCIENCE, CHINESE ACADEMY OF …, priority 2017, dated 2023):
Where a name gives a salt, the structure may show the parent alone.

Key:
P210/T315I-BaF3 = assay: Proliferation of P210/T315I-BaF3 cells, CCK8 cell viability assay; type: cell-based; conditions: Mus musculus, 72 hours, stably expressing BCR-ABL/T315I
Outline: (§1)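 Human kinase-region sequences were PCR-amplified, fused behind N-terminal TEL in MSCV-Puro and stably introduced into mouse BaF3 by retrovirus. IL-3 was then removed to give kinase-dependent lines. Compound effects on these and on parental BaF3 are scored as GI50 (μM) via CCK8 viable-cell quantification.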

Tel-RET-BaF3 = assay: Proliferation of Tel-RET-BaF3 cells, CCK8 cell viability assay; type: cell-based; conditions: Mus musculus, 72 hours, stably expressing RET kinase
Description: In this example the following cells were used: […] (purchased from ATCC), mouse P210-BaF3 (stably expressing BCR-ABL mutant activated kinase), mouse P210/T315I-BaF3 (stably expressing BCR-ABL/T315I mutant activated kinase), mouse FLT3-ITD-BaF3 (stably expressing FLT3/ITD mutant activated kinase), mouse TEL-FLT3-BaF3 (stably expressing FLT3 kinase), mouse TEL-cKIT-BaF3 (stably expressing cKIT kinase), mouse BaF3-tel/T670I-cKit (stably expressing cKIT/T670I mutant activated kinase), mouse Tel-VEGFR2-BaF3 (stably expressing VEGFR2 kinase), mouse Tel-PDGFRα-BaF3 (stably expressing PDGFRα kinase), mouse Tel-PDGFRβ-BaF3 (stably expressing PDGFRβ kinase), mouse Tel-RET-BaF3 (stably expressing RET kinase). The above cell lines were all constructed by our laboratory according to the following method: the kinase region sequences of human P210, P210/T315I, FLT3/ITD, FLT3, cKIT, cKIT/T670I, VEGFR2, PDGFRα, PDGFRβ, RET were respectively amplified by PCR, and inserted into MSCV-Puro vectors having N-terminal TEL or TPR fragments (Clontech). The vectors were stably transfected into mouse BaF3 cells by means of retrovirus, and the growth factor IL-3 were removed, eventually obtaining cell lines that depend on transferred protein P210, P210/T315I, FLT3/ITD, FLT3, cKIT, cKIT/T670I, VEGFR2, PDGFRα, PDGFRβ, or RET.
GI50 (unit: μM) was calculated by quantifying the number of living cells based on quantitative measurement of reductive dehydrogenase in living cells with CCK8 cell viability assay kit (Bestbio, China).

Tel-cKit-BaF3 = assay: Proliferation of Tel-cKit-BaF3 cells, CCK8 cell viability assay; type: cell-based, mouse; conditions: Mus musculus; 72 hours, CCK8; stably expressing cKIT kinase
Outline: (§2)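 Growth inhibition is expressed as GI50 in μM, with living-cell number estimated by reductive dehydrogenase activity in a CCK8 assay. The engineered BaF3 lines express TEL-fused human cKIT, PDGFRα or PDGFRβ and proliferate without IL-3 only through that kinase.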

TEL-PDGFRβ-BaF3 = assay: Proliferation of TEL-PDGFRβ-BaF3 cells, CCK8 cell viability assay; type: cell-based; conditions: Mus musculus, 72 hours, stably expressing PDGFRβ kinase
Outline: as §2

Tel-FLT3-BaF3 = assay: Proliferation of Tel-FLT3-BaF3 cells, CCK8 cell viability assay; type: cell-based; conditions: Mus musculus, 72 hours, stably expressing FLT3 kinase
Outline: as §1

FLT3-ITD-BaF3 = assay: Proliferation of FLT3-ITD-BaF3 cells, CCK8 cell viability assay; type: cell-based; conditions: Mus musculus, 72 hours, stably expressing FLT3/ITD
Outline: as §1

TEL-VEGFR2-BaF3 = assay: Proliferation of TEL-VEGFR2-BaF3 cells, CCK8 cell viability assay; type: cell-based; conditions: Mus musculus, 72 hours, stably expressing VEGFR2 kinase
Outline: as §1

BaF3 = assay: Proliferation of BaF3 cells, CCK8 cell viability assay; type: cell-based; conditions: Mus musculus, 72 hours
Outline: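 Parental murine BaF3 and IL-3-independent BaF3 transformants driven by TEL–cKIT, TEL–PDGFRα or TEL–PDGFRβ, with human kinase domains stably transduced by retrovirus. CCK8 dehydrogenase read-out gives GI50 (μM).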

TEL-PDGFRα-BaF3 = assay: Proliferation of TEL-PDGFRα-BaF3 cells, CCK8 cell viability assay; type: cell-based; conditions: Mus musculus, 72 hours, stably expressing PDGFRα kinase
Outline: as §2

Tel-cKit/T670I-BaF3 = assay: Proliferation of Tel-cKit/T670I-BaF3 cells, CCK8 cell viability assay; type: cell-based; conditions: Mus musculus, 72 hours, stably expressing cKIT/T670I
Outline: as §2

P210-BaF3 = assay: Proliferation of P210-BaF3 cells, CCK8 cell viability assay; type: cell-based; conditions: Mus musculus, 72 hours, stably expressing BCR-ABL mutant activated kinase
Outline: as §1

SMILES | GI50 (P210/T315I-BaF3) [nM] | GI50 (Tel-RET-BaF3) [nM] | GI50 (Tel-cKit-BaF3) [nM] | GI50 (TEL-PDGFRβ-BaF3) [nM] | GI50 (Tel-FLT3-BaF3) [nM] | GI50 (FLT3-ITD-BaF3) [nM] | GI50 (TEL-VEGFR2-BaF3) [nM] | GI50 (BaF3) [nM] | GI50 (TEL-PDGFRα-BaF3) [nM] | GI50 (Tel-cKit/T670I-BaF3) [nM] | GI50 (P210-BaF3) [nM]
CC(=O)Nc1cc(Oc2ccc(NC(=O)Cc3ccccc3F)cc2)ncn1 [Example 25, N-[4-(6-acetylamino-pyrimidin-4-yloxy)-phenyl]-2-(2-fluoro-phenyl)-acetamide] | 1040 | > 10000 | > 10000 | 73 | 1150 | 263 | 2110 | > 10000 | 33 | > 10000 | > 10000
CC(=O)Nc1cc(Oc2ccc(NC(=O)Cc3ccccc3Cl)cc2)ncn1 [Example 26, N-[4-(6-acetylamino-pyrimidin-4-yloxy)-phenyl]-2-(2-chloro-phenyl)-acetamide] | > 10000 | > 10000 | 8680 | 180 | 436 | 77 | 1240 | > 10000 | 74 | > 10000 | > 10000
Cc1ccc(NC(=O)NC2CCC(Oc3cc(NCCNC(=O)OC(C)(C)C)ncn3)CC2)cc1C(F)(F)F (stereo not shown) [Example 124, [2-(6-{4-[3-(4-methyl-3-trifluoromethyl-phenyl)-ureido]-cyclohexyloxy}-pyrimidin-4-ylamino)-ethyl]-aminotert-butyl Formate] | 1540 | 1920 | 2560 | 180 | 694 | 149 | 890 | 1170 | 150 | 2270 | 2800
CC(C)C(=O)Nc1cc(Oc2ccc(NC(=O)Cc3cccc(C(F)(F)F)c3)cc2)ncn1 [Example 50, N-(6-{4-[2-(3-trifluoromethyl-phenyl)-acetylamino]-phenoxy}-pyrimidin-4-yl)-isobutyramide] | > 10000 | > 10000 | 855 | 7 | 814 | 206 | 2580 | > 10000 | 5 | 9220 | > 10000
CC(C)C(=O)Nc1cc(Oc2ccc(NC(=O)Cc3ccccc3C(F)(F)F)cc2)ncn1 [Example 49, N-(6-{4-[2-(2-trifluoromethyl-phenyl)-acetylamino]-phenoxy}-pyrimidin-4-yl)-isobutyramide] | > 10000 | > 10000 | > 10000 | 145 | 2580 | 1970 | 6110 | > 10000 | 59 | > 10000 | > 10000
CC(=O)Nc1cc(Oc2ccc(NC(=O)Cc3cccc(F)c3F)cc2)ncn1 [Example 16, N-[4-(6-acetylamino-pyrimidin-4-yloxy)-phenyl]-2-(2,3-difluoro-phenyl)-acetamide] | > 10000 | 247 | > 10000 | 109 | 818 | 247 | 853 | > 10000 | 12 | > 10000 | > 10000
Cc1ccc(NC(=O)NC2CCC(Oc3cc(NCCN)ncn3)CC2)cc1C(F)(F)F (stereo not shown) [Example 128, 1-{4-[6-(2-amino-ethylamino)-pyrimidin-4-yloxy]-cyclohexyl}-3-(4-methyl-3-trifluoromethyl-phenyl)-urea] | 8730 | 3870 | 8470 | 150 | 150 | 87 | 1190 | > 10000 | 110 | 641 | > 10000
CC(=O)Nc1cc(Oc2ccc(NC(=O)C(O)c3ccc(Br)cc3)cc2)ncn1 (stereo not shown) [Example 14, N-[4-(6-acetylamino-pyrimidin-4-yloxy)-phenyl]-2-(4-bromo-phenyl)-2-hydroxy-acetamide] | > 10000 | > 10000 | > 10000 | 341 | 713 | 284 | 1240 | > 10000 | 89 | > 10000 | > 10000
CC(=O)Nc1cc(Oc2ccc(NC(=O)Cc3cccc(Br)c3)cc2)ncn1 [Example 13, N-[4-(6-acetylamino-pyrimidin-4-yloxy)-phenyl]-2-(3-bromo-phenyl)-acetamide] | > 10000 | > 10000 | 6890 | 33 | 616 | 99 | 566 | > 10000 | 4 | > 10000 | > 10000
COc1ccccc1CC(=O)Nc1ccc(Oc2cc(NC(C)=O)ncn2)cc1 [Example 24, N-[4-(6-acetylamino-pyrimidin-4-yloxy)-phenyl]-2-(2-methoxy-phenyl)-acetamide] | > 10000 | > 10000 | > 10000 | 356 | 1760 | 331 | 3100 | > 10000 | 77 | > 10000 | > 10000
Cc1ccc(NC(=O)Nc2ccc(Oc3cc(N[C@@H](C)C(=O)O)ncn3)cc2)cc1C(F)(F)F [Example 126, (6-(4-(3-(4-methyl-3-(trifluoromethyl)phenyl)ureido)phenoxy)pyrimidin-4-yl)-L-aminopropionic Acid] | > 10000 | 6380 | 1660 | 490 | 797 | 153 | 410 | > 10000 | 140 | 4680 | > 10000
CC(=O)Nc1cc(Oc2ccc(NC(=O)Cc3ccc(Cl)cc3Cl)cc2)ncn1 [Example 8, N-[4-(6-acetylamino-pyrimidin-4-yloxy)-phenyl]-2-(2,4-dichloro-phenyl)-acetamide] | > 10000 | > 10000 | 524 | 3 | 17 | 4 | 139 | > 10000 | 1 | > 10000 | 6740
CC(=O)Nc1cc(Oc2ccc(NC(=O)Cc3cccc([N+](=O)[O-])c3C)cc2)ncn1 [Example 9, N-[4-(6-acetylamino-pyrimidin-4-yloxy)-phenyl]-2-(2-methyl-3-nitro-phenyl)-acetamide] | > 10000 | > 10000 | 584 | 10 | 12 | 2 | 304 | > 10000 | 4 | 5630 | > 10000
COCCNc1cc(OC2CCC(NC(=O)Nc3ccc(C)c(C(F)(F)F)c3)CC2)ncn1 (stereo not shown) [Example 41, 1-{4-[6-(2-methoxy-ethylamino)-pyrimidin-4-yloxy]-cyclohexyl}-3-(4-methyl-3-trifluoromethyl-phenyl)-urea] | 4690 | 3180 | 5120 | 233 | 263 | 109 | 2900 | 7800 | 59 | 707 | 4430
